Laboratory results: patent US5840696A (priority 1997, dated 1998)

What was measured:
[1] = test system: forskolin-stimulated cAMP production; settings: literature (4,5); cited from earlier work
[2] = test system: conscious Sprague-Dawley rats; experiment: intracerebroventricular (i.c.v.) injection in conscious rats: cardiovascular and renal responses; type: in vivo, rat
Description: Abbreviations are HR, heart rate; MAP, mean arterial pressure; V, urine flow rate; and UNa V, urinary sodium excretion. Statistical significance within each group was determined by a repeated measures analysis of variance followed by a Bonferroni multiple comparisons test; asterisks (a, b, or c) denote a significant change (p<0.05) from control within each group.
Anesthetized male Sprague-Dawley rats (275-300 g, Sprague-Dawley, Inc., Indianapolis, Ind.) were implanted with chronic arterial and venous cannulas and a bladder catheter in accordance with previously published methods (10, 12). For experiments in which drugs were administered i.c.v., a stainless steel cannula was stereotaxically implanted into the right lateral ventricle of rats under anesthesia at least 5-7 days prior to experimentation (11). On the morning of the study rats were placed in a rat holder which permits forward and backward movement and allows for collection of urine from the bladder catheter. Conscious rats were then infused i.v. with isotonic saline (50 μl/min) for the duration of the experiment. The arterial cannulae was then flushed and attached to a pressure transducer (Statham P23Db) and the urinary bladder catheter led to a collection beaker. After equilibration and stabilization of urine flow rate and urinary sodium excretion (approximately 2-3 hours) the experimental protocol described in each figure legend commenced. Intravenous and i.c.v. stock solutions of nociceptin and nor-binaltorphimine were prepared fresh in isotonic saline vehicle. […] Animal experimentation and care procedures were in accordance with the National Institutes of Health guidelines for the care and use of animals.

[3] = test system: intact-chest, anesthetized rats; experiment: bolus injection into right atrium versus left atrium, systemic arterial pressure (first-pass lung transit); type: in vivo, rat; settings: inferred from right versus left atrial injection
Description: Such a hemodynamic profile would be particularly desireable in patients experiencing congestive heart failure since pulmonary vasodilation would be expected to enhance resolution of pulmonary edema and systemic vasodilation (i.e. afterload reduction) would be expected to enhance myocardial performance.

[4] = test system: systemic vascular bed of the anesthetized rat; experiment: systemic vasodepressor response to bolus i.v. nociceptin in the anesthetized rat; type: in vivo
Description: N=number of animals. *p<0.05 when compared to corresponding control value.
Male rats (250-300 g) were anesthetized with pentobarbital sodium (30 mg/kg i.p.). Catheters were placed into a femoral artery and femoral vein for measurement of systemic […] blood pressure and administration of drugs, respectively. Cardiac output was calculated by using Columbus 2F thermodilution catheter placed fluoroscopically in the ascending aortic arch assess changes in temperature following a thermal reference injection of saline (0.2 ml) at room temperature into the right atrium via a jugular venous catheter. Changes in systemic arterial pressure were measured using a Gould P23Id pressure transducer and recorded on a Grass Model 7A recorder. Cardiac output was determined using a Columbus Cardiomax thermodilution cardiac output computer.
Values are means +/-SE; N=6. *p,0.05 compared with corresponding control (paired t test).

[5] = biological target: T1, central kappa-opioid receptors (Rattus norvegicus, UniProt P34975); experiment: renal responses to i.c.v. peptide in rats pre-treated i.c.v. with nor-binaltorphimine; type: in vivo; settings: peptide 10 μg i.c.v.; nor-binaltorphimine 1 μg i.c.v.
T1 construct: Anesthetized male Sprague-Dawley rats; from tissue; host or cells: central nervous system of conscious male Sprague-Dawley rats (in vivo, lateral cerebral ventricle injection)
T1 sequence (P34975 whole entry): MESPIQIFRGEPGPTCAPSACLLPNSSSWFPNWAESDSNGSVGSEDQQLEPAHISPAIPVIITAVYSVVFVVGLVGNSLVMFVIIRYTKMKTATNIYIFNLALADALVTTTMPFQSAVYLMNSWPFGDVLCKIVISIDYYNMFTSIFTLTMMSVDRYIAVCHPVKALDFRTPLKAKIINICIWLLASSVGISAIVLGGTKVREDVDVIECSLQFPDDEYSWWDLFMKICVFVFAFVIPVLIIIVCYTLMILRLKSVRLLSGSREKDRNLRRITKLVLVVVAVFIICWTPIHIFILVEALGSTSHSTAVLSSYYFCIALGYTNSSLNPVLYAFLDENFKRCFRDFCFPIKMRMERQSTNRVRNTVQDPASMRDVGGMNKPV
Description: Abbreviations are V, urine flow rate and UNa V, urinary sodium excretion.
For comparative purposes, the renal responses produced by central administration of the endogenous opioid peptide, dynorphin A, were also studied i.c.v.
Anesthetized male Sprague-Dawley rats (275-300 g, Sprague-Dawley, Inc., Indianapolis, Ind.) were implanted with chronic arterial and venous cannulas and a bladder catheter in accordance with previously published methods (10, 12). For experiments in which drugs were administered i.c.v., a stainless steel cannula was stereotaxically implanted into the right lateral ventricle of rats under anesthesia at least 5-7 days prior to experimentation (11). On the morning of the study rats were placed in a rat holder which permits forward and backward movement and allows for collection of urine from the bladder catheter. Conscious rats were then infused i.v. with isotonic saline (50 μl/min) for the duration of the experiment. The arterial cannulae was then flushed and attached to a pressure transducer (Statham P23Db) and the urinary bladder catheter led to a collection beaker. After equilibration and stabilization of urine flow rate and urinary sodium excretion (approximately 2-3 hours) the experimental protocol described in each figure legend commenced. […]

[6] = test system: rat kidney; experiment: site of infusion (right renal artery, suprarenal and infrarenal aorta, intravenous) and urine flow rate; type: in vivo; settings: direct right renal arterial administration
[7] = test system: conscious rats; experiment: lower-dose i.v. infusion of nociceptin (50 and 166 nanog/Kg/min) in conscious rats, renal function; type: in vivo, rat
Description: These marked increases in urine flow rate occurred at doses approximately 120 fold lower than previously reported by Kapusta et al. (17). In order to confirm these more recent and complete studies of the present invention, nociceptin was obtained from three commercially available sources, Phoenix Pharmaceutical, Bachem Chemical and Peninsula Laboratories. […] Nociceptin from each of the sources above was studied at a single infusion rate in each group of six rats. […] These increases in urine flow were accompanied by a decrease in the excretion of urinary sodium (UNA V) as reported earlier (17).

[8] = test system: isolated feline renal, femoral, mesenteric and carotid arterial rings; experiment: isolated feline arterial rings (with endothelium) precontracted with phenylephrine
Description: Additional studies were performed in vitro to determine the contribution of changes in regional hemodynamics in the systemic vasodilator response to nociceptin.

[9] = test system: constitutive nitric oxide synthase (cNOS); experiment: influence of L-NAME on urine flow rate responses in conscious rats; settings: L-NAME 30 mg/Kg i.v., 45 min before infusion
[10] = test system: systemic vascular bed of the anesthetized rat; settings: literature (18); cited from earlier work
[11] = 0.3 ug, i.v. bolus, mean +/- SE, N=6
[12] = 1.0 ug, i.v. bolus, mean +/- SE, N=6
[13] = 3.0 ug, i.v. bolus, mean +/- SE, N=6
[14] = i.v. infusion 50 and 166 nanog/Kg/min

CC(C)C[C@H](NC(=O)[C@H](CCCCN)NC(=O)[C@H](CCCN=C(N)N)NC(=O)[C@H](C)NC(=O)[C@H](CO)NC(=O)[C@H](CCCCN)NC(=O)[C@H](CCCN=C(N)N)NC(=O)[C@H](C)NC(=O)CNC(=O)[C@@H](NC(=O)[C@H](Cc1ccccc1)NC(=O)CNC(=O)CNC(=O)[C@@H](N)Cc1ccccc1)[C@@H](C)O)C(=O)N[C@@H](C)C(=O)N[C@@H](CC(N)=O)C(=O)N[C@@H](CCC(N)=O)C(=O)O [nociceptin]
forskolin-stimulated cAMP production [1]: inhibits forskolin-stimulated cAMP production | tachyphylaxis to the cardiovascular and renal responses ([2]; consecutive i.c.v. injection of the same dose (1, 10 or 30 μg)): did not develop | time of peak diuresis ([2]; i.c.v. 1 μg): 30 min | time of peak diuresis ([2]; i.c.v. 10 μg): 40 min | renal response (urine flow rate and urinary sodium excretion) ([2]; i.c.v. 10 μg, naive conscious rats): concurrent diuretic and antinatriuretic response | onset of diuresis compared with dynorphin A ([2]; i.c.v. 10 μg, p<0.05 at time 20 min): significantly delayed | diuretic response ([2]; i.c.v. 1, 10 or 30 μg): profound diuretic response | heart rate, mean arterial pressure and urinary sodium excretion ([2]; i.c.v. 1, 10 or 30 μg, versus group control): significant (p<0.05) decreases | duration of bradycardia ([2]; i.c.v., all doses): approximately 30 minutes | duration of hypotensive response ([2]; i.c.v., all doses): ~40 min | onset of bradycardia and hypotensive response ([2]; i.c.v., all doses (1, 10, 30 μg)): 1 to 3 min | minimum effective i.c.v. dose to evoke a change in urine flow rate and urinary sodium excretion ([2]; i.c.v., preliminary studies): 1 µg | first-pass uptake or metabolism in the lung [3]: does not undergo significant first-pass uptake or metabolism | Cardiac Output [4, 11]: 111.3 ± 49.6 mL/min | Systemic Arterial Pressure [4, 11]: 150.0 +/- 15.5 mmHg | Systemic Vascular Resistance [4, 11]: 1.1 +/- 0.1 mmHg/ml/min | Cardiac Output [4, 12]: 102.8 ± 4.5 mL/min | Systemic Arterial Pressure [4, 12]: 141.0 +/- 17.8 mmHg | Systemic Vascular Resistance [4, 12]: 1.1 +/- 0.2 mmHg/ml/min | Cardiac Output [4, 13]: 96.8 ± 34.4 mL/min | Systemic Arterial Pressure [4, 13]: 109.6 +/- 19.8 mmHg | Systemic Vascular Resistance [4, 13]: 0.8 +/- 0.1 mmHg/ml/min | systemic vasodepressor response after L-NAME or L-NIO ([4]; 45 min after L-NAME or L-NIO): significantly inhibited | Cardiac Output ([4]; bolus i.v. doses): did not significantly alter cardiac output | systemic vasodepressor response after glybenclamide and meclofenamate ([4]; bolus i.v. injections, anesthetized rats): not inhibited | Systemic Arterial Pressure ([4]; bolus i.v. injections, pentobarbital-anesthetized rats): decreased systemic arterial pressure in a dose-dependant manner | effect of i.c.v. nor-binaltorphimine pretreatment on the diuresis and antinatriuresis produced by the peptide [5]: did not alter | left or right ureteral flow rate [6]: did not increase | doses producing increases in urine flow rate, lower than in preliminary studies / Kapusta et al. (17) ([7]; i.v. infusion): approximately 120 fold | baseline systemic arterial pressure and heart rate [7, 14]: did not alter baseline systemic arterial pressure and heart rate | duration of renal responses [7, 14]: approximately 90 min | excretion of urinary sodium (UNA V) [7, 14]: decrease | time of peak renal effect after start of infusion [7, 14]: 30 min | urine flow rate (V) ([7]; i.v. infusion 50 and 166 nanog/Kg/min, conscious rats): dose-dependent increase | relaxation of arterial rings [8]: ability to relax | increase in urine flow rate (V) in response to i.v. infusion after L-NAME [9]: significantly inhibited | decrease of systemic arterial pressure, sensitivity to naloxone [10]: naloxone-insensitive
